The text below walks through data of patent US20260184663A1, “INDENE COMPOUNDS, PHARMACEUTICAL COMPOSITIONS THEREOF, AND THEIR THERAPEUTIC APPLICATIONS” (NucMito Pharmaceuticals co. Ltd., priority 2022, published 2026).

Holding throughout (assay type): cell-based
Test [1] has as its system MDA-MB-231 (breast cancer). Nature of the test: Antiproliferative activity (CCK-8 cell viability), MDA-MB-231. To be noted: Homo sapiens, 72 h, read-out: Antiproliferative activity in cancerous cells, MDA-MB-231 (inhibition of cell growth); for inhibition at 3.3 µM: Compound concentration: 3.3 μM; for inhibition at 10 µM: Compound concentration: 10 μM. The method in brief:
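MDA-MB-231 breast cancer cells, grown in DMEM with 10% FBS, were plated in 96-well plates at 2,000-5,000 cells/well. Once attached, they were exposed to compound and incubated at 37° C. for 72 h. Viability was then measured with CCK-8 (10 μL per well, 4 h at 37° C.) by absorbance at 450 nm, relative to DMSO vehicle wells.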

The test system of test [2] is HepG2 (liver cancer). The test can be described thus: Antiproliferative activity (CCK-8 cell viability), HepG2. Particulars: Homo sapiens, 72 h, read-out: Antiproliferative activity in cancerous cells, HepG2 (inhibition of cell growth); for inhibition at 3.3 µM: Compound concentration: 3.3 μM; for inhibition at 10 µM: Compound concentration: 10 μM. Put shortly: (§1)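 Cells grown in DMEM (HepG2, SW480), MEM (HeLa) or F-12K (A549), each with 10% FBS, then exposed to compound at 3.3, 10 or 30 μM for 72 h at 37 °C. CCK-8 absorbance at 450 nm; viability expressed as percent of DMSO-treated cells, graded as growth inhibition bands.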

Test [3] has as its system A431 (epidermoid carcinoma). The test can be described thus: Antiproliferative activity (CCK-8 cell viability), A431. Particulars: Homo sapiens, 72 h, read-out: Antiproliferative activity in cancerous cells, A431 (inhibition of cell growth); for inhibition at 3.3 µM: A-431, Compound concentration: 3.3 μM; for inhibition at 10 µM: A-431, Compound concentration: 10 μM. Put shortly:
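A431 epidermoid carcinoma cells grown in DMEM with 10% FBS were plated at 2,000-5,000 cells/well in 96-well plates. After attachment they were exposed to compound at 3.3 μM, 10 μM, or 30 μM for 72 h at 37° C. Viability was then assessed by CCK-8 against DMSO vehicle-treated wells.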

For test [4], the system named is A549 (lung adenocarcinoma). The test can be described thus: Antiproliferative activity (CCK-8 cell viability), A549. Particulars: Homo sapiens, 72 h, read-out: Antiproliferative activity in cancerous cells, A549 (inhibition of cell growth); for inhibition at 3.3 µM: Compound concentration: 3.3 μM; for inhibition at 10 µM: Compound concentration: 10 μM. Put shortly: as §1

In test [5] the test system is SW480 (colon cancer). Nature of the test: Antiproliferative activity (CCK-8 cell viability), SW480. Particulars: Homo sapiens, 72 h, read-out: Antiproliferative activity in cancerous cells, SW480 (inhibition of cell growth); for inhibition at 3.3 µM: Compound concentration: 3.3 μM; for inhibition at 10 µM: Compound concentration: 10 μM. Put shortly: as §1
The subject of test [6] is HeLa (cervical cancer). The test can be described thus: Antiproliferative activity (CCK-8 cell viability), HeLa. To be noted: Homo sapiens, 72 h, read-out: Antiproliferative activity in cancerous cells, HELA (inhibition of cell growth); for inhibition at 3.3 µM: Compound concentration: 3.3 μM; for inhibition at 10 µM: Compound concentration: 10 μM. Put shortly:
as §1

The subject of test [7] is B16F10 (malignant melanoma). The test can be described thus: Antiproliferative activity (CCK-8 cell viability), B16F10. To be noted: Mus musculus, 72 h, read-out: Antiproliferative activity in cancerous cells, B16F10 (inhibition of cell growth); for inhibition at 3.3 µM: B16-F10, Compound concentration: 3.3 μM; for inhibition at 10 µM: B16-F10, Compound concentration: 10 μM. The method in brief:
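B16F10 melanoma cells grown in DMEM with 10% FBS were plated in 96-well plates at 2,000-5,000 cells/well. After attachment they were exposed to compound in medium for 72 h at 37° C. CCK-8 solution (10 μL) was then added, and after 4 h at 37° C absorbance was read at 450 nm.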

SMILES strings stand for the structures.

The inhibition is the percentage by which the read-out fell short of the control. As for `CC1=C(CC(=O)O)c2cc(Cl)ccc2/C1=C\c1cccc(Oc2ccc(C#N)cc2)c1` [C94, (Z)-2-(5-Chloro-1-(3-(4-cyanophenoxy)benzylidene)-2-methyl-1H-inden-3-yl)acetic acid], the inhibition at 3.3 µM in test [1] is below 30%; in test [2], below 30%; in test [3] it was at least 50%; in test [4] it was below 30%; in test [5], below 30%; in test [6], below 30%. Moreover, in test [7], the inhibition at 3.3 µM was 30 to 50%. Further, the inhibition at 10 µM in test [1] was 30 to 50%; in test [2], at least 50%; in test [3], at least 50%; in test [4], at least 50%; in test [5], below 30%; in test [6] it was at least 50%. In addition, the inhibition at 10 µM in test [7] lay in the range of 30 to 50%.
Turning to `CC1=C(CC(=O)O)c2cc(F)ccc2/C1=C\c1cccc(Oc2ccc(C)cc2)c1` [C96, (Z)-2-(5-Fluoro-2-methyl-1-(3-(p-tolyloxy)benzylidene)-1H-inden-3-yl)acetic acid], the inhibition at 3.3 µM in test [1] was below 30%; in test [2] it was 30 to 50%; in test [3] it was at least 50%; in test [4], below 30%; in test [5], below 30%; in test [6], 30 to 50%. Also, the inhibition at 3.3 µM in test [7] fell in the range of 30 to 50%. For the same compound, the inhibition at 10 µM in test [1] was below 30%; in test [2], at least 50%; in test [3], at least 50%; in test [4], at least 50%; in test [5], below 30%; in test [6], at least 50%. Moreover, the inhibition at 10 µM in test [7] is 30 to 50%.
In the case of `CC1=C(CC(=O)O)c2cc(F)ccc2/C1=C\c1cccc(Oc2ccc(Br)cc2)c1` [C97, (Z)-2-(1-(3-(4-Bromophenoxy)benzylidene)-5-fluoro-2-methyl-1H-inden-3-yl)acetic acid], the inhibition at 3.3 µM in test [1], in test [2], in test [3], in test [4], in test [5] and in test [6] was below 30% in each case. The inhibition at 3.3 µM in test [7] is 30 to 50%. Further, the inhibition at 10 µM in test [1] was below 30%; in test [2] it was at least 50%; in test [3] it was below 30%; in test [4], 30 to 50%; in test [5], below 30%; in test [6], at least 50%. Also, the inhibition at 10 µM in test [7] was at least 50%.
On to `CC1=C(CC(=O)O)c2cc(F)ccc2/C1=C\c1cccc(Oc2ccc(F)c(F)c2)c1` [C98, (Z)-2-(1-(3-(3,4-Difluorophenoxy)benzylidene)-5-fluoro-2-methyl-1H-inden-3-yl)acetic acid], for which the inhibition at 3.3 µM in test [1], in test [2], in test [3], in test [4], in test [5] and in test [6] was below 30% throughout. In addition, the inhibition at 3.3 µM in test [7] lay within 30 to 50%. Further, the inhibition at 10 µM in test [1] is 30 to 50%; in test [2], at least 50%; in test [3] it was 30 to 50%; in test [4] it was below 30%; in test [5], below 30%; in test [6], at least 50%. Further, in test [7], the inhibition at 10 µM was at least 50%.
Turning to `CC1=C(CC(=O)O)c2cc(F)ccc2/C1=C\c1cccc(Oc2ccc3ccccc3c2)c1` [C99, (Z)-2-(5-Fluoro-2-methyl-1-(3-(naphthalen-2-yloxy)benzylidene)-1H-inden-3-yl)acetic acid], the inhibition at 3.3 µM in test [1], in test [2], in test [3], in test [4], in test [5] and in test [6] was below 30% each time. In addition, the inhibition at 3.3 µM in test [7] was at least 50%. The inhibition at 10 µM in test [1] was 30 to 50%; in test [2] it was at least 50%; in test [3] it was below 30%; in test [4], below 30%; in test [5], below 30%; in test [6] it was at least 50%. Also, the inhibition at 10 µM in test [7] was at least 50%.
On to `CC1=C(CC(=O)O)c2cc(F)ccc2/C1=C\c1cccc(Oc2ccc(I)cc2)c1` [C100, (Z)-2-(5-Fluoro-1-(3-(4-iodophenoxy)benzylidene)-2-methyl-1H-inden-3-yl)acetic acid], for which the inhibition at 3.3 µM in test [1], in test [2], in test [3], in test [4], in test [5] and in test [6] was below 30% throughout. In addition, in test [7], the inhibition at 3.3 µM is below 30%. In addition, the inhibition at 10 µM in test [1] is below 30%; in test [2], at least 50%; in test [3], below 30%; in test [4] it was 30 to 50%; in test [5], below 30%; in test [6], at least 50%. In addition, in test [7], the inhibition at 10 µM fell in the range of 30 to 50%.
On to `CC1=C(CC(=O)O)c2cc(F)ccc2/C1=C\c1cccc(Oc2cccc(Cl)c2)c1` [C101, (Z)-2-(1-(3-(3-Chlorophenoxy)benzylidene)-5-fluoro-2-methyl-1H-inden-3-yl)acetic acid], for which the inhibition at 3.3 µM in test [1] was below 30%; in test [2], below 30%; in test [3], 30 to 50%; in test [4], below 30%; in test [5], below 30%; in test [6], below 30%. Further, the inhibition at 3.3 µM in test [7] is at least 50%. The inhibition at 10 µM is below 30% in test [1]; at least 50% in test [2]; at least 50% in test [3]; below 30% in test [4]; 30 to 50% in test [5]; 30 to 50% in test [6]. For the same compound, the inhibition at 10 µM in test [7] was at least 50%.
Regarding `COc1ccc(Oc2cccc(/C=C3/C(C)=C(CC(=O)O)c4cc(F)ccc43)c2)cc1Cl` [C102, (Z)-2-(1-(3-(3-Chloro-4-methoxyphenoxy)benzylidene)-5-fluoro-2-methyl-1H-inden-3-yl)acetic acid], the inhibition at 3.3 µM in test [1] is at least 50%; in test [2], at least 50%; in test [3], at least 50%; in test [4], at least 50%; in test [5], below 30%; in test [6] it was below 30%. The inhibition at 3.3 µM in test [7] was at least 50%. Also, the inhibition at 10 µM in test [1], in test [2], in test [3], in test [4], in test [5] and in test [6] was at least 50% in each case. The inhibition at 10 µM in test [7] is at least 50%.
